The source of these data is ChEMBL document CHEMBL1201862, “PubChem BioAssay data set” (2004).

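Dose response: 5 concentrations. Exposure: 48 h. Format: 96-well plates. Endpoint: linear interpolation; highest concentration if not reached. Here, GI50 denotes the concentration required for 50% inhibition of growth.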 Activity calls are given as the source filed them. Cut-off read from the data, not from the text of the source: active = GI50 up to about 1.1 µM and inactive = higher.

Among the test systems are ACHN; Malme-3M; DLD-1; COLO 205; OVCAR-5; LOX IMVI; 786-0; EKVX; NCI-H226; NCI-H23; SNB-75; UACC-257; KM12; RPMI-8226; SNB-78; CAKI-1; SF-539; SK-MEL-2.
What all share (experiment): DTP human tumour cell line panel, 48 h

Broadly, the GI50 is the concentration that inhibits growth by half. With `COC(=O)C(C(=O)C(=O)Nc1ccccc1OC)c1csc(-n2nc(-c3ccccc3)cc2-c2ccccc2)n1` (configuration not stated), the GI50 with ACHN, in the experiment with Malme-3M, in the experiment with DLD-1, in the experiment with COLO 205, with OVCAR-5 and in the experiment with LOX IMVI was > 100 µM (inactive) each time. Also, the GI50 in the experiment with 786-0 is > 100 µM (inactive); with EKVX it was 43.1 µM (inactive); in the experiment with NCI-H226 it was > 100 µM (inactive); in the experiment on NCI-H23 it was > 100 µM (inactive); with SNB-75, 8.97 µM (inactive); in the experiment on UACC-257, > 100 µM (inactive). Also, the GI50 in the experiment with KM12 was 95.9 µM (inactive); with RPMI-8226 it was > 100 µM (inactive); in the experiment with SNB-78, > 100 µM (inactive); with CAKI-1, > 100 µM (inactive).
Turning to `CN(O)C(=O)Cc1ccccc1`, the GI50 in the experiment with ACHN, in the experiment on Malme-3M, in the experiment with DLD-1, in the experiment with COLO 205, in the experiment with OVCAR-5 and in the experiment with LOX IMVI was > 100 µM (inactive) in each case. The GI50 with 786-0 is > 100 µM (inactive); in the experiment on NCI-H226 it was > 100 µM (inactive); in the experiment on NCI-H23, > 100 µM (inactive); in the experiment on SNB-75, 67 µM (inactive); in the experiment on UACC-257 it was > 100 µM (inactive); in the experiment on KM12, > 100 µM (inactive). For the same molecule, the GI50 in the experiment with RPMI-8226, with SNB-78, in the experiment with CAKI-1 and in the experiment with SF-539 was > 100 µM (inactive) in each case.
For `CCOC(=O)c1nc(C)oc1C(F)(F)F`, the GI50 in the experiment on ACHN, with Malme-3M, in the experiment with DLD-1, in the experiment with COLO 205, with OVCAR-5 and with LOX IMVI was > 100 µM (inactive) each time. For the same molecule, the GI50 with 786-0, in the experiment with EKVX, with NCI-H226, in the experiment on NCI-H23, in the experiment on SNB-75 and in the experiment with SK-MEL-2 was > 100 µM (inactive) each time. The GI50 in the experiment on UACC-257, in the experiment on KM12, in the experiment on SNB-78, in the experiment with CAKI-1 and with SF-539 was > 100 µM (inactive) throughout.
In the case of `Cc1cc(N(CCC#N)S(=O)(=O)c2ccccc2)ccc1/C=C1\N=C(c2ccc(Cl)cc2)OC1=O`, the GI50 in the experiment on ACHN, in the experiment with Malme-3M, in the experiment with DLD-1, in the experiment with COLO 205, with OVCAR-5 and with LOX IMVI was > 100 µM (inactive) in each case. Moreover, the GI50 with 786-0 was > 100 µM (inactive); in the experiment on EKVX it was > 100 µM (inactive); with NCI-H226, 38.1 µM (inactive); in the experiment on NCI-H23 it was > 100 µM (inactive); with SK-MEL-2, > 100 µM (inactive); with UACC-257, > 100 µM (inactive). For the same molecule, the GI50 in the experiment on KM12, in the experiment with RPMI-8226, with SNB-78, with CAKI-1 and in the experiment on SF-539 was > 100 µM (inactive) each time.
For `OC1=CN=C(c2ccccc2)Oc2ccccc21`, the GI50 was > 100 µM (inactive) with ACHN; > 100 µM (inactive) in the experiment on Malme-3M; > 100 µM (inactive) in the experiment with DLD-1; > 100 µM (inactive) in the experiment on COLO 205; > 100 µM (inactive) with LOX IMVI; 46.7 µM (inactive) in the experiment on 786-0. Besides, the GI50 was > 100 µM (inactive) in the experiment on EKVX; 33 µM (inactive) in the experiment on NCI-H226; > 100 µM (inactive) with NCI-H23; 30.7 µM (inactive) in the experiment on SNB-75; > 100 µM (inactive) with SK-MEL-2; > 100 µM (inactive) in the experiment with UACC-257. Also, the GI50 with KM12 is 50.9 µM (inactive); with RPMI-8226 it was > 100 µM (inactive); in the experiment on SNB-78, 80.4 µM (inactive); in the experiment with SF-539, 19 µM (inactive).
`COCOC1CCCC[C@@]1(OCCOCCO[C@@]1(c2ccccc2)CCCC[C@H]1OCOC)c1ccccc1` (some centres not stated): the GI50 is 87.7 µM (inactive) in the experiment on ACHN; > 100 µM (inactive) in the experiment with Malme-3M; > 100 µM (inactive) with DLD-1; > 100 µM (inactive) in the experiment with COLO 205; > 100 µM (inactive) in the experiment on OVCAR-5; > 100 µM (inactive) in the experiment on LOX IMVI. Besides, the GI50 is 46.6 µM (inactive) in the experiment on 786-0; 37.8 µM (inactive) in the experiment with EKVX; > 100 µM (inactive) in the experiment with NCI-H226; > 100 µM (inactive) in the experiment with NCI-H23; 24.4 µM (inactive) with SNB-75; > 100 µM (inactive) with SK-MEL-2. Further, the GI50 in the experiment with UACC-257 was > 100 µM (inactive); in the experiment on KM12, > 100 µM (inactive); in the experiment on RPMI-8226, > 100 µM (inactive); in the experiment with SNB-78, 55.3 µM (inactive); in the experiment on CAKI-1, 41.1 µM (inactive).
For `Sc1nnc(-c2ccnc(-c3nnc(S)[nH]3)c2)[nH]1`, the GI50 in the experiment on ACHN, with Malme-3M, in the experiment on DLD-1, in the experiment on COLO 205, in the experiment with OVCAR-5 and with LOX IMVI was > 100 µM (inactive) in each case. For the same molecule, the GI50 in the experiment with 786-0, with EKVX, with NCI-H226, in the experiment with NCI-H23, in the experiment with SK-MEL-2 and in the experiment on UACC-257 was > 100 µM (inactive) each time. The GI50 in the experiment on KM12, with RPMI-8226, with SNB-78, in the experiment with CAKI-1 and in the experiment with SF-539 was > 100 µM (inactive) in each case.
For the molecule `CC(=O)OC1CCn2nnc(CO[Si](C)(C)C(C)(C)C)c21` (configuration not stated), the GI50 with ACHN, with Malme-3M, with DLD-1, in the experiment with COLO 205, with OVCAR-5 and in the experiment on 786-0 was > 100 µM (inactive) in each case. Also, the GI50 in the experiment with EKVX was > 100 µM (inactive); with NCI-H226, > 100 µM (inactive); with NCI-H23, > 100 µM (inactive); with SNB-75, 21 µM (inactive); in the experiment on SK-MEL-2, > 100 µM (inactive); with UACC-257, > 100 µM (inactive). Also, the GI50 with KM12, with RPMI-8226, in the experiment on CAKI-1 and in the experiment with SF-539 was > 100 µM (inactive) in each case.
For `O=C(O)Cn1c(=O)[nH]c(=O)c2[nH]cnc21`, the GI50 in the experiment with ACHN, with Malme-3M, in the experiment with DLD-1, in the experiment with COLO 205, in the experiment on OVCAR-5 and with LOX IMVI was > 100 µM (inactive) throughout. Besides, the GI50 in the experiment on 786-0, in the experiment on EKVX, in the experiment on NCI-H23, in the experiment on SNB-75, in the experiment on SK-MEL-2 and in the experiment on UACC-257 was > 100 µM (inactive) in each case. The GI50 in the experiment on KM12, with SNB-78 and in the experiment with SF-539 was > 100 µM (inactive) in each case.
With `O=C(NCC(=O)N1CCOC1=O)OCc1ccccc1`, the GI50 in the experiment with ACHN, in the experiment with DLD-1, in the experiment on COLO 205, in the experiment with LOX IMVI, in the experiment on 786-0 and with EKVX was > 100 µM (inactive) each time. Besides, the GI50 with NCI-H226, in the experiment on NCI-H23, in the experiment with SNB-75, with SK-MEL-2, in the experiment on UACC-257 and in the experiment with KM12 was > 100 µM (inactive) in each case. For the same molecule, the GI50 in the experiment with RPMI-8226, in the experiment with SNB-78 and with SF-539 was > 100 µM (inactive) throughout.
For `Cc1ccc(NC(=O)CSc2nnc(-c3ccc(/N=C\c4ccc(Cl)cc4)cc3)o2)cc1`, the GI50 in the experiment on ACHN, in the experiment with Malme-3M, in the experiment with COLO 205, in the experiment with LOX IMVI, with 786-0 and in the experiment on EKVX was > 100 µM (inactive) each time. For the same molecule, the GI50 in the experiment with NCI-H226 was > 100 µM (inactive); in the experiment with NCI-H23, > 100 µM (inactive); in the experiment with SNB-75, 72.8 µM (inactive); with SK-MEL-2 it was > 100 µM (inactive); with UACC-257, > 100 µM (inactive); in the experiment on KM12, > 100 µM (inactive). Also, the GI50 in the experiment with RPMI-8226 and in the experiment with SNB-78 was > 100 µM (inactive) throughout.
Consider `CCOC(=O)C=C1CCN(C(=O)c2ccccc2)CC1`, for which the GI50 in the experiment with ACHN, in the experiment on Malme-3M, in the experiment with DLD-1, in the experiment on COLO 205, with OVCAR-5 and with LOX IMVI was > 100 µM (inactive) in each case. The GI50 was > 100 µM (inactive) with 786-0; > 100 µM (inactive) in the experiment on EKVX; > 100 µM (inactive) in the experiment on NCI-H23; > 100 µM (inactive) in the experiment with SNB-75; < 0.01 µM (active) in the experiment on SK-MEL-2; > 100 µM (inactive) in the experiment with UACC-257. Moreover, the GI50 in the experiment with KM12, with RPMI-8226, with SNB-78 and with SF-539 was > 100 µM (inactive) in each case.
